ChEMBL document CHEMBL6182913, “Design of Potent Small-Molecule Stimulator of Interferon Gene Inhibitor and Stimulator of Interferon Gene Mutant-Specific Degrader” (J Med Chem, 2025)
pIC50: −log10 of the molar value.

Tests used:
[1] = Cytotoxicity against human THP1-Blue ISG cells assessed as inhibition of cell growth at 10 uM incubated for 24 hrs by MTS assay relative to control; assay type: toxicity, cell-based
[2] = target: Stimulator of interferon genes protein (Homo sapiens, UniProt Q86WV6, G230A/R293Q/R71H); assay: Inhibition of cGAMP-induced STING HAQ mutant transfected in human THP1-Blue ISG cells preincubated with compound for 6 hrs followed by cGAMP addition and measured after 18 hrs by QUANTI-Blue based microplate reader analysis; assay type: cell-based
Sequence of Stimulator of interferon genes protein (Q86WV6 whole entry R71H/G230A/R293Q): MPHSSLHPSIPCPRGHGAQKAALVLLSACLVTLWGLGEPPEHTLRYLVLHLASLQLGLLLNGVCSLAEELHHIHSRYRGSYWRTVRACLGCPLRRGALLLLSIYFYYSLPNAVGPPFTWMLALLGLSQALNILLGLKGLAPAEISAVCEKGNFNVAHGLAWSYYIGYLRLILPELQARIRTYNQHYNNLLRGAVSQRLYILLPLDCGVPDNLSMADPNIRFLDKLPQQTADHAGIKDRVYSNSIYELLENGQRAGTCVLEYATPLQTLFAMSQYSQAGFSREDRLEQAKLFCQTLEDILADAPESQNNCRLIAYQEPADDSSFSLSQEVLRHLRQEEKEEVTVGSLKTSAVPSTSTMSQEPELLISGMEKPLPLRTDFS

CN(c1ccc(C(=O)Nc2ccc(O)c(NS(C)(=O)=O)c2)cc1)c1ccc(C2C(C(N)=O)c3ccccc3C(=O)N2c2ccc(C(C)(C)C)c(Cl)c2)cc1 (centres undefined)
inhibition at 24 h, 10 µM [1]: 1.2% | pIC50 [2]: 6.09

CC(C)(C)c1ccc(N2C(=O)c3cc(F)ccc3C(C(N)=O)C2c2ccc3sc(-c4ccc(C(=O)Nc5ccc(O)c(NS(C)(=O)=O)c5)cc4)cc3c2)cc1Cl (centres undefined)
inhibition at 24 h, 10 µM [1]: 7.7% | pIC50 [2]: 6.02

CC(C)(C)c1ccc(N2C(=O)c3cc(F)ccc3C(C(N)=O)C2c2ccc3sc(-c4ccc(C(=O)Nc5ccc(O)c(NS(=O)(=O)C6CC6)c5)cc4)cc3c2)cc1Cl (centres undefined)
inhibition at 24 h, 10 µM [1]: 7.7% | pIC50 [2]: < 5.00

CC(C)(C)c1ccc(N2C(=O)c3ccccc3C(C(N)=O)C2c2cc3cc(-c4ccc(C(=O)Nc5ccc(O)c(NS(C)(=O)=O)c5)cc4)ccc3o2)cc1F (centres undefined)
inhibition at 24 h, 10 µM [1]: 55.6% | pIC50 [2]: 7.00

CC(C)(C)c1ccc(N2C(=O)c3ccccc3C(C(=O)O)C2c2cc3cc(-c4ccc(C(=O)Nc5ccc(O)c(NS(C)(=O)=O)c5)cc4)ccc3s2)cc1Cl (centres undefined)
inhibition at 24 h, 10 µM [1]: 0% | pIC50 [2]: < 5.00

CC(C)(C)c1ccc(N2C(=O)c3cc(F)ccc3C(C(N)=O)C2C2=Cc3cc(-c4ccc(C(=O)Nc5ccc(O)c(NS(C)(=O)=O)c5)cc4)ccc3S2(=O)=O)cc1Cl (centres undefined)
inhibition at 24 h, 10 µM [1]: 12.7% | pIC50 [2]: 6.14

CC(C)(C)c1ccc(N2C(=O)c3ccccc3C(C(N)=O)C2c2ccc(Nc3ccc(C(=O)Nc4ccc(O)c(NS(C)(=O)=O)c4)cc3)cc2)cc1Cl (centres undefined)
inhibition at 24 h, 10 µM [1]: 0% | pIC50 [2]: 5.49

CS(=O)(=O)Nc1cc(NC(=O)c2ccc(-c3ccc4oc(C5C(C(N)=O)c6ccccc6C(=O)N5c5ccc(Br)c(Cl)c5)cc4c3)cc2)ccc1O (centres undefined)
inhibition at 24 h, 10 µM [1]: 65.1% | pIC50 [2]: 6.57

CC(C)(C)c1ccc(N2C(=O)c3ccccc3C(C(N)=O)C2c2ccc(Oc3ccc(C(=O)Nc4ccc(O)cc4)cc3)cc2)cc1Cl (centres undefined)
inhibition at 24 h, 10 µM [1]: 29.4% | pIC50 [2]: < 5.00

CC(C)(C)c1ccc(N2C(=O)c3cc(F)ccc3C(C(N)=O)C2c2ccc3sc(-c4ccc(C(=O)Nc5ccc(O)c(NS(C)(=O)=O)c5)cc4F)cc3c2)cc1Cl (centres undefined)
inhibition at 24 h, 10 µM [1]: 11.1% | pIC50 [2]: 6.10

CC(C)(C)c1ccc(N2C(=O)c3cc(F)ccc3C(C(N)=O)C2c2ccc3sc(-c4ccc(C(=O)Nc5ccc(O)c(C(N)=O)c5)cc4)cc3c2)cc1Cl (centres undefined)
inhibition at 24 h, 10 µM [1]: 14.7% | pIC50 [2]: < 5.00

CC(C)(C)c1ccc(N2C(=O)c3ccccc3C(C(N)=O)C2c2ccc3sc(-c4ccc(C(=O)Nc5ccc(O)c(NS(C)(=O)=O)c5)cc4)cc3c2)cc1Cl (centres undefined)
inhibition at 24 h, 10 µM [1]: 3.9% | pIC50 [2]: 6.74

CC(C)(C)c1ccc(N2C(=O)c3ccccc3C(C(N)=O)C2c2cc3cc(-c4ccc(C(=O)Nc5ccc(F)c(NS(C)(=O)=O)c5)cc4)ccc3o2)cc1Cl (centres undefined)
inhibition at 24 h, 10 µM [1]: 26.8% | pIC50 [2]: < 5.00

CC(C)(C)c1ccc(N2C(=O)c3ccccc3C(C(N)=O)C2c2ccc(Oc3ccc(C(=O)Nc4cc(F)c(O)c(F)c4)cc3)cc2)cc1Cl (centres undefined)
inhibition at 24 h, 10 µM [1]: 44.5% | pIC50 [2]: 5.49

CS(=O)(=O)Nc1cc(NC(=O)c2ccc(-c3ccc4oc(C5C(C(N)=O)c6ccccc6C(=O)N5c5ccc(C6CC6)c(Cl)c5)cc4c3)cc2)ccc1O (centres undefined)
inhibition at 24 h, 10 µM [1]: 61.5% | pIC50 [2]: 6.96

CC(C)(C)c1ccc(N2C(=O)c3cc(F)ccc3C(C(N)=O)C2c2cc3cc(-c4ccc(C(=O)Nc5ccc(O)c(NC(=O)C(F)(F)F)c5)cc4)ccc3s2)cc1Cl (centres undefined)
inhibition at 24 h, 10 µM [1]: 12.5% | pIC50 [2]: 5.64

CC(C)(C)c1ccc(N2C(=O)c3ccccc3C(C(N)=O)C2c2cc3cc(-c4ccc(C(=O)Nc5ccc(N)c(NS(C)(=O)=O)c5)cc4)ccc3o2)cc1Cl (centres undefined)
inhibition at 24 h, 10 µM [1]: 28.5% | pIC50 [2]: < 5.00

CC(C)(C)c1ccc(N2C(=O)c3cc(F)ccc3C(C(N)=O)C2c2cc3cc(-c4ccc(C(=O)Nc5ccc(O)c(NS(C)(=O)=O)c5)cc4)ccc3s2)cc1Cl (centres undefined)
inhibition at 24 h, 10 µM [1]: 23.2% | pIC50 [2]: 6.35

CS(=O)(=O)Nc1cc(NC(=O)c2ccc(-c3ccc4oc(C5C(C(N)=O)c6ccccc6C(=O)N5c5ccc(C6CC6)cc5)cc4c3)cc2)ccc1O (centres undefined)
inhibition at 24 h, 10 µM [1]: 25.6% | pIC50 [2]: 6.57

CC(C)(C)c1ccc(N2C(=O)c3ccccc3C(C(N)=O)C2c2cc3cc(-c4ccc(C(=O)Nc5cc(O)cc(NS(C)(=O)=O)c5)cc4)ccc3o2)cc1Cl (centres undefined)
inhibition at 24 h, 10 µM [1]: 46.2% | pIC50 [2]: < 5.00

CC(C)(C)c1ccc(N2C(=O)c3ccccc3C(C(N)=O)C2c2cc3cc(-c4ccc(C(=O)N[C@H]5CC[C@H](O)CC5)cc4)ccc3o2)cc1Cl (some centres undefined)
inhibition at 24 h, 10 µM [1]: 67% | pIC50 [2]: < 5.00

CC(C)(C)c1ccc(N2C(=O)c3ccccc3C(C(N)=O)C2c2cc3cc(-c4ccc(C(=O)Nc5ccc(O)c(NS(C)(=O)=O)c5)cc4)ccc3s2)cc1Cl (centres undefined)
inhibition at 24 h, 10 µM [1]: 15.9% | pIC50 [2]: 6.36

CC(C)(C)c1ccc(N2C(=O)c3ccccc3C(C(N)=O)C2c2ccc3oc(-c4ccc(C(=O)Nc5ccc(O)c(NS(C)(=O)=O)c5)cc4)cc3c2)cc1Cl (centres undefined)
inhibition at 24 h, 10 µM [1]: 14% | pIC50 [2]: 5.55

CC(C)(C)c1ccc(N2C(=O)c3ccccc3C(C(N)=O)C2c2cc3cc(-c4ccc(C(=O)Nc5cc(-c6ccco6)n[nH]5)cc4)ccc3o2)cc1Cl (centres undefined)
inhibition at 24 h, 10 µM [1]: 17.8% | pIC50 [2]: < 5.00

CS(=O)(=O)Nc1cc(NC(=O)c2ccc(-c3ccc4oc(C5C(C(N)=O)c6ccccc6C(=O)N5c5ccccc5)cc4c3)cc2)ccc1O (centres undefined)
inhibition at 24 h, 10 µM [1]: 23% | pIC50 [2]: 5.44

CCC(=O)Nc1cc(NC(=O)c2ccc(Oc3ccc(C4C(C(N)=O)c5ccccc5C(=O)N4c4ccc(C(C)(C)C)c(Cl)c4)cc3)cc2)ccc1O (centres undefined)
inhibition at 24 h, 10 µM [1]: 7.5% | pIC50 [2]: < 5.00

CC(=O)Nc1cc(NC(=O)c2ccc(Oc3ccc(C4C(C(N)=O)c5ccccc5C(=O)N4c4ccc(C(C)(C)C)c(Cl)c4)cc3)cc2)ccc1O (centres undefined)
inhibition at 24 h, 10 µM [1]: 67.2% | pIC50 [2]: 5.60

CS(=O)(=O)Nc1cc(NC(=O)c2ccc(-c3ccc4oc(C5C(C(N)=O)c6ccccc6C(=O)N5c5ccc6c(c5)CCCC6)cc4c3)cc2)ccc1O (centres undefined)
inhibition at 24 h, 10 µM [1]: 38.7% | pIC50 [2]: 6.27

CC(C)(C)c1ccc(N2C(=O)c3ccccc3C(C(N)=O)C2c2cc3cc(-c4ccc(C(=O)Nc5ccc(O)c(NS(C)(=O)=O)c5)cn4)ccc3o2)cc1Cl (centres undefined)
inhibition at 24 h, 10 µM [1]: 45.7% | pIC50 [2]: 6.85

CC(C)(C)c1ccc(N2C(=O)c3ccccc3C(C(N)=O)C2c2cc3cc(-c4ccc(NC(=O)c5cc(O)cc(NS(C)(=O)=O)c5)cc4)ccc3s2)cc1Cl (centres undefined)
inhibition at 24 h, 10 µM [1]: 50.2% | pIC50 [2]: < 5.00

CC(C)(C)c1ccc(N2C(=O)c3ccccc3C(C(N)=O)C2c2ccc(Oc3ccc(C(=O)Nc4ccc(CO)c(NS(C)(=O)=O)c4)cc3)cc2)cc1Cl (centres undefined)
inhibition at 24 h, 10 µM [1]: 0% | pIC50 [2]: < 5.00

CC(C)(C)c1ccc(N2C(=O)c3ccccc3C(C(N)=O)C2c2ccc(Oc3ccc(C(=O)Nc4ccc(O)c(NS(C)(=O)=O)c4)cc3)cc2)cc1Cl (centres undefined)
inhibition at 24 h, 10 µM [1]: 33.8% | pIC50 [2]: < 5.00

CC(C)(C)c1ccc(N2C(=O)c3ccccc3C(C(N)=O)C2c2cc3cc(-c4ncc(C(=O)Nc5ccc(O)c(NS(C)(=O)=O)c5)cn4)ccc3o2)cc1Cl (centres undefined)
inhibition at 24 h, 10 µM [1]: 20.4% | pIC50 [2]: < 5.00

CC(C)(C)c1ccc(N2C(=O)c3ccccc3C(C(N)=O)C2c2cc3cc(-c4ccc(C(=O)Nc5ccc(O)c(NS(=O)(=O)C(F)(F)F)c5)cc4)ccc3o2)cc1Cl (centres undefined)
inhibition at 24 h, 10 µM [1]: 20.2% | pIC50 [2]: < 5.00

CC(=O)Nc1cc(NC(=O)c2ccc(Oc3ccc(C4C(C(N)=O)c5ccccc5C(=O)N4c4ccc(C(C)(C)C)c(Cl)c4)cc3)cc2)ccc1C (centres undefined)
inhibition at 24 h, 10 µM [1]: 11.6% | pIC50 [2]: < 5.00

CC(C)(C)c1ccc(N2C(=O)c3ccccc3C(C(N)=O)C2c2ccc3c(c2)C=C(c2ccc(C(=O)Nc4ccc(O)c(NS(C)(=O)=O)c4)cc2)S3(=O)=O)cc1Cl (centres undefined)
inhibition at 24 h, 10 µM [1]: 36.1% | pIC50 [2]: < 5.00

CC(C)(C)c1ccc(N2C(=O)c3ccccc3C(C(N)=O)C2c2cc3cc(-c4ccc(C(=O)NC5CCN(S(C)(=O)=O)CC5)cc4)ccc3o2)cc1Cl (centres undefined)
inhibition at 24 h, 10 µM [1]: 35.2% | pIC50 [2]: < 5.00

CN1C(=O)c2ccccc2C(C(N)=O)C1c1cc2cc(-c3ccc(C(=O)Nc4ccc(O)c(NS(C)(=O)=O)c4)cc3)ccc2o1 (centres undefined)
inhibition at 24 h, 10 µM [1]: 57.9% | pIC50 [2]: 5.19

CC(C)(C)c1ccc(N2C(=O)c3ccccc3C(C(N)=O)C2c2cc3cc(-c4ccc(C(=O)Nc5ccc(O)c(NC(=O)C(F)(F)F)c5)cc4)ccc3o2)cc1Cl (centres undefined)
inhibition at 24 h, 10 µM [1]: 4.9% | pIC50 [2]: 5.24

CC(C)(C)c1ccc(N2C(=O)c3ccccc3C(C(N)=O)C2c2ccc(Oc3ccc(C(=O)Nc4ccc(NS(C)(=O)=O)cc4)cc3)cc2)cc1Cl (centres undefined)
inhibition at 24 h, 10 µM [1]: 13.7% | pIC50 [2]: < 5.00

CC(C)(C)c1ccc(N2C(=O)c3ccccc3C(C(N)=O)C2c2ccc(Oc3ccc(C(=O)Nc4cccc(NS(C)(=O)=O)c4)cc3)cc2)cc1Cl (centres undefined)
inhibition at 24 h, 10 µM [1]: 10.5% | pIC50 [2]: < 5.00

CC(C)(C)c1ccc(N2C(=O)c3ccccc3C(C(N)=O)C2c2cc3cc(-c4ccc(C(=O)N[C@H]5CC[C@@H](O)CC5)cc4)ccc3o2)cc1Cl (some centres undefined)
inhibition at 24 h, 10 µM [1]: 59.6% | pIC50 [2]: < 5.00
